Some results are limits rather than exact numbers.

As usually defined, the IC50 is the midpoint of a concentration-inhibition curve.

In this assay the target is Complement factor D (Homo sapiens, UniProt P00746). Kind of assay: Human Factor D Assay. As to the method: Human Factor D (purified from human serum, Complement Technology, Inc.) at 80 nM final concentration is incubated with test compound at various concentrations for 5 min at room temperature in 50 mM Tris, 1M NaCl, pH 7.5. A synthetic substrate Z-L-Lys-SBzl and DTNB (Ellman's reagent) are added to final concentrations of 100 µM each. Absorbance at 405 nm (A405) is recorded at 30 second intervals for 30 minutes using a microplate spectrophotometer. IC50 values are calculated by nonlinear regression of Complement Factor D reaction rates as a function of test compound concentration.
Chain of Complement factor D (P00746 whole entry): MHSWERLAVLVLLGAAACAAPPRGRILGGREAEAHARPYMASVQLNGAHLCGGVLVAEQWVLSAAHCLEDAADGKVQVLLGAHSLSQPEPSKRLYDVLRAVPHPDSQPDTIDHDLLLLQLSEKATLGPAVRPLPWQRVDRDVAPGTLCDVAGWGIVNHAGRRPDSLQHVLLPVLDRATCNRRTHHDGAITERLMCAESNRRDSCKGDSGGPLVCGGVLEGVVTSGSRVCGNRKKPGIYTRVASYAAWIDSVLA
For the compound `CC(=O)c1nn(CC(=O)N2[C@H]3C[C@@]4(C=CCCCN(C)S(=O)(=O)Cc5ccc(Br)nc5NC3=O)C[C@@H]24)c2ccc(-c3cnc(C)nc3)cc12` [US11053253, Cmp No. T-215], the half-inhibitory concentration (IC50) is < 1 µM.

On to `CC(=O)c1nn(CC(=O)N2[C@H]3C[C@@]4(COCC=CCOCc5cc(Br)nc(c5)NC3=O)C[C@@H]24)c2cnc(-c3cnc(C)nc3)cc12` [US11053253, Cmp No. T-83], for which the IC50 was < 1 µM. Turning to `CC(=O)c1nn(CC(=O)N2[C@H]3C[C@]4(C[C@@H]24)Cn2ccc(n2)/C=C/COCc2ccc(Br)nc2NC3=O)c2ccc(-c3cnc(C)nc3)cc12` [US11053253, Cmp No. T-67], the IC50 is < 1 µM. As for `CC(=O)c1nn(CC(=O)N2[C@H]3C[C@@]4(C=CCCCN(C)S(=O)(=O)Cc5ccc(Br)nc5NC3=O)C[C@@H]24)c2c(C)cc(-c3cnc(C)nc3)cc12` [US11053253, Cmp No. T-216], the figure is < 1 µM; as for `CC(=O)c1nn(CC(=O)N2[C@H]3C[C@]4(C[C@@H]24)Cn2ccc(n2)/C=C/COCc2ccc(Br)nc2NC3=O)c2cnc(-c3cnc(C)nc3)cc12` [US11053253, Cmp No. T-68], < 1 µM.
